Test results as given in patent US20250129430A1, “HIGH ATP-AFFINITY PROTEIN AS THERAPEUTIC TARGET FOR INTRACTABLE CANCER MOLECULAR SUBTYPES AND INHIBITOR THEREOF” (VeraVerse Co., Ltd., priority 2021, published 2025).

Tests used:
Assay type in all cases: cell-based, human
[1] = tested on: AGS; assay: Cell viability drug screen, 12-point dose-response AUC; conditions: for Average Area Under the Viability Curve (AUC), AUC norm value: AGS cells (non-SEM subtype), 72 hours
How it was run: (§1)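 Luminescent viability readings, taken 15 min after reagent addition at room temperature, were normalized to the 0.5% DMSO control to build 12-point dose-response curves. Trapezoidal integration gave the AUC. Cells had been plated at 5×10^3 per well and then exposed to half-log dilutions for 72 h.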

[2] = tested on: Hs746T; assay: as above; conditions: for Average Area Under the Viability Curve (AUC), AUC norm value: Hs746T cells (SEM subtype), 72 hours
How it was run: as §1

[3] = tested on: KATO3; assay: as above; conditions: for Average Area Under the Viability Curve (AUC), AUC norm value: KATO3 cells, 72 hours
How it was run: as §1

[4] = tested on: MKN1; assay: as above; conditions: for Average Area Under the Viability Curve (AUC), AUC norm value: MKN1 cells, 72 hours
How it was run: as §1

[5] = tested on: MKN28; assay: as above; conditions: for Average Area Under the Viability Curve (AUC), AUC norm value: MKN28 cells, 72 hours
How it was run: as §1

[6] = tested on: MKN45; assay: as above; conditions: for Average Area Under the Viability Curve (AUC), AUC norm value: MKN45 cells (non-SEM subtype), 72 hours
How it was run: as §1

[7] = tested on: MKN74; assay: as above; conditions: for Average Area Under the Viability Curve (AUC), AUC norm value: MKN74 cells, 72 hours
How it was run: as §1

[8] = tested on: NCC19; assay: as above; conditions: for Average Area Under the Viability Curve (AUC), AUC norm value: NCC19 cells, 72 hours
How it was run: as §1

[9] = tested on: NCC20; assay: as above; conditions: for Average Area Under the Viability Curve (AUC), AUC norm value: NCC20 cells, 72 hours
How it was run: as §1

[10] = tested on: NCC24; assay: as above; conditions: for Average Area Under the Viability Curve (AUC), AUC norm value: NCC24 cells, 72 hours
How it was run: as §1

[11] = tested on: NCC59; assay: as above; conditions: for Average Area Under the Viability Curve (AUC), AUC norm value: NCC59 cells, 72 hours
How it was run: as §1

[12] = tested on: NCI_N87; assay: as above; conditions: for Average Area Under the Viability Curve (AUC), AUC norm value: NCI_N87 cells, 72 hours
How it was run: as §1

[13] = tested on: OCUM1; assay: as above; conditions: for Average Area Under the Viability Curve (AUC), AUC norm value: OCUM1 cells, 72 hours
How it was run: as §1

[14] = tested on: SK4; assay: as above; conditions: for Average Area Under the Viability Curve (AUC), AUC norm value: SK4 cells (SEM subtype), 72 hours
How it was run: as §1

[15] = tested on: SNU16; assay: as above; conditions: for Average Area Under the Viability Curve (AUC), AUC norm value: SNU16 cells, 72 hours
How it was run: as §1

[16] = tested on: SNU1750; assay: as above; conditions: for Average Area Under the Viability Curve (AUC), AUC norm value: SNU1750 cells (SEM subtype), 72 hours
How it was run: as §1

[17] = tested on: SNU1967; assay: as above; conditions: for Average Area Under the Viability Curve (AUC), AUC norm value: SNU1967 cells, 72 hours
How it was run: as §1

[18] = tested on: SNU1; assay: as above; conditions: for Average Area Under the Viability Curve (AUC), AUC norm value: SNU1 cells, 72 hours
How it was run: as §1

[19] = tested on: SNU216; assay: as above; conditions: for Average Area Under the Viability Curve (AUC), AUC norm value: SNU216 cells (non-SEM subtype), 72 hours
How it was run: as §1

[20] = tested on: SNU484; assay: as above; conditions: for Average Area Under the Viability Curve (AUC), AUC norm value: SNU484 cells (SEM subtype), 72 hours
How it was run: as §1

[21] = tested on: SNU601; assay: as above; conditions: for Average Area Under the Viability Curve (AUC), AUC norm value: SNU601 cells, 72 hours
How it was run: as §1

[22] = tested on: SNU620; assay: as above; conditions: for Average Area Under the Viability Curve (AUC), AUC norm value: SNU620 cells, 72 hours
How it was run: as §1

[23] = tested on: SNU638; assay: as above; conditions: for Average Area Under the Viability Curve (AUC), AUC norm value: SNU638 cells, 72 hours
How it was run: as §1

[24] = tested on: SNU668; assay: as above; conditions: for Average Area Under the Viability Curve (AUC), AUC norm value: SNU668 cells (SEM subtype), 72 hours
How it was run: as §1

[25] = tested on: SNU719; assay: as above; conditions: for Average Area Under the Viability Curve (AUC), AUC norm value: SNU719 cells, 72 hours
How it was run: as §1

[26] = tested on: YCC11; assay: as above; conditions: for Average Area Under the Viability Curve (AUC), AUC norm value: YCC11 cells (SEM subtype), 72 hours
How it was run: as §1

[27] = tested on: YCC2; assay: as above; conditions: for Average Area Under the Viability Curve (AUC), AUC norm value: YCC2 cells, 72 hours
How it was run: as §1

[28] = tested on: YCC3; assay: as above; conditions: for Average Area Under the Viability Curve (AUC), AUC norm value: YCC3 cells, 72 hours
How it was run: as §1

[29] = tested on: FU97; assay: as above; design: Average Area Under the Viability Curve (AUC), AUC norm value: scale not given here; conditions: for Average Area Under the Viability Curve (AUC), AUC norm value: FU97 cells, 72 hours
How it was run: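 Trapezoidal AUC of a 12-point, DMSO-normalized dose-response curve. Luminescent viability was measured after 72 h of exposure at 37° C to half-log serial dilutions (0.5% DMSO control), dosed 24 h after plating FU97 cells at 5×10^3 per well.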

[30] = tested on: non-SEM-type gastric cancer cell line; assay: Cell viability drug screen, AUC summary over non-SEM-type lines; conditions: in the non-SEM-type gastric cancer cell line

## Cc1ccc([N+](=O)[O-])cc1S(=O)(=O)N(C)/N=C/c1cnc2ccc(Br)cn12 [PIK-75]
[1]
  Average Area Under the Viability Curve (AUC), AUC norm value: −1.2576
[2]
  Average Area Under the Viability Curve (AUC), AUC norm value: 0.1171
[3]
  Average Area Under the Viability Curve (AUC), AUC norm value: 3.793
[4]
  Average Area Under the Viability Curve (AUC), AUC norm value: −0.03458
[5]
  Average Area Under the Viability Curve (AUC), AUC norm value: 0.05865
[6]
  Average Area Under the Viability Curve (AUC), AUC norm value: 1.17
[7]
  Average Area Under the Viability Curve (AUC), AUC norm value: 0.2052
[8]
  Average Area Under the Viability Curve (AUC), AUC norm value: 0.3535
[9]
  Average Area Under the Viability Curve (AUC), AUC norm value: −0.4913
[10]
  Average Area Under the Viability Curve (AUC), AUC norm value: −0.07825
[11]
  Average Area Under the Viability Curve (AUC), AUC norm value: −0.1565
[12]
  Average Area Under the Viability Curve (AUC), AUC norm value: −0.1238
[13]
  Average Area Under the Viability Curve (AUC), AUC norm value: 0.5105
[14]
  Average Area Under the Viability Curve (AUC), AUC norm value: −1.009
[15]
  Average Area Under the Viability Curve (AUC), AUC norm value: −1.485
[16]
  Average Area Under the Viability Curve (AUC), AUC norm value: 0
[17]
  Average Area Under the Viability Curve (AUC), AUC norm value: −0.3048
[18]
  Average Area Under the Viability Curve (AUC), AUC norm value: −0.3397
[19]
  Average Area Under the Viability Curve (AUC), AUC norm value: 0.8132
[20]
  Average Area Under the Viability Curve (AUC), AUC norm value: −0.9469
[21]
  Average Area Under the Viability Curve (AUC), AUC norm value: 1.999
[22]
  Average Area Under the Viability Curve (AUC), AUC norm value: 0.7882
[23]
  Average Area Under the Viability Curve (AUC), AUC norm value: 1.312
[24]
  Average Area Under the Viability Curve (AUC), AUC norm value: −0.428
[25]
  Average Area Under the Viability Curve (AUC), AUC norm value: 5.726
[26]
  Average Area Under the Viability Curve (AUC), AUC norm value: −0.5398
[27]
  Average Area Under the Viability Curve (AUC), AUC norm value: 1.289
[28]
  Average Area Under the Viability Curve (AUC), AUC norm value: 1.723
[29]
  Average Area Under the Viability Curve (AUC), AUC norm value: −0.5267
[30]
  AUC value: high

## [O-][n+]1ccccc1[S-].[O-][n+]1ccccc1[S-].[Zn+2] [PYRITHIONE ZINC, Pyrithione zinc]
[1]
  area under the viability curve (AUC), normalized: −0.9355
[2]
  area under the viability curve (AUC), normalized: −0.541
[3]
  area under the viability curve (AUC), normalized: 0.8219
[4]
  area under the viability curve (AUC), normalized: −0.4913
[5]
  area under the viability curve (AUC), normalized: 0.1421
[6]
  area under the viability curve (AUC), normalized: −1.0871
[7]
  area under the viability curve (AUC), normalized: −1.149
[8]
  area under the viability curve (AUC), normalized: 0.7336
[9]
  area under the viability curve (AUC), normalized: −0.7838
[10]
  area under the viability curve (AUC), normalized: −0.309
[11]
  area under the viability curve (AUC), normalized: 0.7288
[12]
  area under the viability curve (AUC), normalized: 1.161
[13]
  area under the viability curve (AUC), normalized: 0.5355
[14]
  area under the viability curve (AUC), normalized: 0
[15]
  area under the viability curve (AUC), normalized: 1.28
[16]
  area under the viability curve (AUC), normalized: 0.1011
[17]
  area under the viability curve (AUC), normalized: −0.5027
[18]
  area under the viability curve (AUC), normalized: 1.431
[19]
  area under the viability curve (AUC), normalized: −0.2272
[20]
  area under the viability curve (AUC), normalized: −0.9287
[21]
  area under the viability curve (AUC), normalized: 2.666
[22]
  area under the viability curve (AUC), normalized: −0.7817
[23]
  area under the viability curve (AUC), normalized: −0.08685
[24]
  area under the viability curve (AUC), normalized: 0.7681
[25]
  area under the viability curve (AUC), normalized: 1.547
[26]
  area under the viability curve (AUC), normalized: −1.337
[27]
  area under the viability curve (AUC), normalized: −0.08387
[28]
  area under the viability curve (AUC), normalized: 0.6512
[29]
  area under the viability curve (AUC), normalized: 0.3344
[30]
  AUC value: high

## CCCCCCCCCCCCCCCC[N+](C)(C)CCN(Cc1ccc(OC)cc1)c1ncccn1 [Thonzonium Bromide]
[1]
  Average Area Under the Viability Curve (AUC), AUC norm value: −0.4105
[2]
  Average Area Under the Viability Curve (AUC), AUC norm value: 0
[3]
  Average Area Under the Viability Curve (AUC), AUC norm value: −0.127
[4]
  Average Area Under the Viability Curve (AUC), AUC norm value: −0.2414
[5]
  Average Area Under the Viability Curve (AUC), AUC norm value: 0.07021
[6]
  Average Area Under the Viability Curve (AUC), AUC norm value: 0.1213
[7]
  Average Area Under the Viability Curve (AUC), AUC norm value: −0.9967
[8]
  Average Area Under the Viability Curve (AUC), AUC norm value: 0.2995
[9]
  Average Area Under the Viability Curve (AUC), AUC norm value: −0.6042
[10]
  Average Area Under the Viability Curve (AUC), AUC norm value: −0.2465
[11]
  Average Area Under the Viability Curve (AUC), AUC norm value: 0.6096
[12]
  Average Area Under the Viability Curve (AUC), AUC norm value: 0.415
[13]
  Average Area Under the Viability Curve (AUC), AUC norm value: 0.2209
[14]
  Average Area Under the Viability Curve (AUC), AUC norm value: −1.033
[15]
  Average Area Under the Viability Curve (AUC), AUC norm value: −0.9128
[16]
  Average Area Under the Viability Curve (AUC), AUC norm value: 0.06729
[17]
  Average Area Under the Viability Curve (AUC), AUC norm value: 0.01501
[18]
  Average Area Under the Viability Curve (AUC), AUC norm value: 1.478
[19]
  Average Area Under the Viability Curve (AUC), AUC norm value: 0.2737
[20]
  Average Area Under the Viability Curve (AUC), AUC norm value: −0.9082
[21]
  Average Area Under the Viability Curve (AUC), AUC norm value: 2.228
[22]
  Average Area Under the Viability Curve (AUC), AUC norm value: −0.2404
[23]
  Average Area Under the Viability Curve (AUC), AUC norm value: −0.4973
[24]
  Average Area Under the Viability Curve (AUC), AUC norm value: 0.3151
[25]
  Average Area Under the Viability Curve (AUC), AUC norm value: 1.9
[26]
  Average Area Under the Viability Curve (AUC), AUC norm value: −0.8304
[27]
  Average Area Under the Viability Curve (AUC), AUC norm value: −0.4255
[28]
  Average Area Under the Viability Curve (AUC), AUC norm value: 0.6163
[29]
  Average Area Under the Viability Curve (AUC), AUC norm value: −0.03008
[30]
  AUC value: high
